Three molecules from BindingDB's records for patent US20250115578 (Chengdu Kanghong Pharmaceutical, 2025) can be followed below.

Broadly, the IC50 is the midpoint of a concentration-inhibition curve. Lower therefore signals greater potency in that assay.

In this assay the target is Sodium channel protein type 10 subunit alpha (Homo sapiens, UniProt Q9Y5Y9). In words: Electrophysiological Assay. The protocol:
A capillary glass pipette (BF150-86-10, Sutter Instruments) was pulled into a recording electrode with a micropipette puller (P97, Sutter Instruments). The micromanipulator (MP285, Sutter Instruments) was manipulated under an inverted microscope (IX71, Olympus) to make the recording electrode contact the cell and negative pressure suction was applied to achieve a GQ seal. Then, rapid capacitance compensation was performed, and negative pressure was continued, cell membrane was broken by suction, and whole cell recording mode was formed. Then the slow capacitance was compensated and the membrane capacitance and series resistance were recorded without leakage compensation. When the whole cell recording current was stabilized, dosing was initiated, and the next concentration was detected after acting 5 minutes of each drug concentration. Multiple cells were independently repeated during the recording period. All electrophysiological assays were performed at room temperature. Specifically, 6 concentrations (measuring IC50) or 2 concentrations (preliminary screening) were set for each compound, and the percentage of inhibition of sodium channels was determined by calculating the relative percentage of peak current generated before and after each concentration compound treated cells, and the IC50 value or percentage of inhibition at a specific concentration was calculated using IGOR pro software.

Chain of Sodium channel protein type 10 subunit alpha (Q9Y5Y9 whole entry): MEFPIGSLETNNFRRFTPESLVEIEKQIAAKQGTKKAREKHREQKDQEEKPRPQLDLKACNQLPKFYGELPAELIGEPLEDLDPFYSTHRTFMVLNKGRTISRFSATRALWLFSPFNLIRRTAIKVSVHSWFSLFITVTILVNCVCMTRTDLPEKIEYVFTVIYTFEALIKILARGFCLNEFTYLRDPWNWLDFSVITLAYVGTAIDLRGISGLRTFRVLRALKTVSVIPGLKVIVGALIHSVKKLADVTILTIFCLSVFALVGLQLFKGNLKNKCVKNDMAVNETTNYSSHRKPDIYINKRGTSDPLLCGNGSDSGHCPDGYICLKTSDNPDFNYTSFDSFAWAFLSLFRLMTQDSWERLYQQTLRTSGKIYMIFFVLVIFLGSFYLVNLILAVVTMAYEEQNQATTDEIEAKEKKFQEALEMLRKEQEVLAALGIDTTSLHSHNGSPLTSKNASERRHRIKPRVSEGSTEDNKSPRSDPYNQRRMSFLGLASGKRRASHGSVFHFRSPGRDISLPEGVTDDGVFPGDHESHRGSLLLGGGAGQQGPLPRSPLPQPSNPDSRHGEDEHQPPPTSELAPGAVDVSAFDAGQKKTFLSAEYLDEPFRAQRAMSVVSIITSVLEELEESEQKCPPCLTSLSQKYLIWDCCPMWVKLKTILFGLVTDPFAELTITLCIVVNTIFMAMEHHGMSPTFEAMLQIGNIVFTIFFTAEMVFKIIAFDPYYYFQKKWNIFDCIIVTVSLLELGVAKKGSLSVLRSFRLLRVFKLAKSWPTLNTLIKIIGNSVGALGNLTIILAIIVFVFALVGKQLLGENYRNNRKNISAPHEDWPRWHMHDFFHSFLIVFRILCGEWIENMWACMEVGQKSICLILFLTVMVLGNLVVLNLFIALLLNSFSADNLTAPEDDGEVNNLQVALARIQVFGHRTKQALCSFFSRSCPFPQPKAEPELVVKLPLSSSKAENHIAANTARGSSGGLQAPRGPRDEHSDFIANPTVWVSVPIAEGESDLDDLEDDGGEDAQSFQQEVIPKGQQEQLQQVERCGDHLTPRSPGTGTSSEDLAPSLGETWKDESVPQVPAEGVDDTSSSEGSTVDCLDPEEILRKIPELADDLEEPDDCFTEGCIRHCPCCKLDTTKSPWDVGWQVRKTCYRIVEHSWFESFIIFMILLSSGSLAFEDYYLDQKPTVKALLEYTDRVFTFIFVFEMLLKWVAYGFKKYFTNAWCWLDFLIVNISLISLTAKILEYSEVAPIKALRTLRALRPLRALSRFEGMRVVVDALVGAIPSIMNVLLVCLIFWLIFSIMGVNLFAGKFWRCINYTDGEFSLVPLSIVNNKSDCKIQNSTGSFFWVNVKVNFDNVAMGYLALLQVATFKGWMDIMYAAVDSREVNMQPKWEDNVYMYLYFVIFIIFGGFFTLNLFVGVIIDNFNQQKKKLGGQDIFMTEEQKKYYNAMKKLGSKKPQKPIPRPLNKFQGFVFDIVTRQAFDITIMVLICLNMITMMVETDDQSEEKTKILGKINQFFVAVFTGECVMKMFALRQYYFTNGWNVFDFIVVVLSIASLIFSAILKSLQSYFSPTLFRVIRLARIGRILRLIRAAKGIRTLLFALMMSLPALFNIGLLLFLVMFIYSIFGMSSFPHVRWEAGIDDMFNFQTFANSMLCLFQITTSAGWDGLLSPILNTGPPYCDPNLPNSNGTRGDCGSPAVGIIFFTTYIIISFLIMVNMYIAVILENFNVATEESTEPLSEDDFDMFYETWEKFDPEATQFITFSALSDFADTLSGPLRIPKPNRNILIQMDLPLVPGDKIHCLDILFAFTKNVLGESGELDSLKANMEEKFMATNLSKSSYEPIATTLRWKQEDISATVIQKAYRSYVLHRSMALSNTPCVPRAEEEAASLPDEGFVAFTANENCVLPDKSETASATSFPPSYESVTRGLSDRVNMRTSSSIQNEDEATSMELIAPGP

`O=C(Nc1cc[nH]c(=O)c1)c1nc2ccccc2nc1N1CCCC(F)(F)CC1` [US20250115578, KH03] yielded an IC50 above 10 nM.

In the case of `O=C(Nc1cn[nH]c(=O)c1)c1nc2ccccc2nc1N1CCCC(F)(F)CC1` [US20250115578, KH04], the IC50 came out at 66.7 nM.

The molecule `O=C(Nc1ccc[n+]([O-])c1)c1nc2ccccc2nc1N1CCCC(F)(F)CC1` [US20250115578, KH01] had an IC50 above 100 nM.
